Test results reported in patent publication US6794491B1, “Polypeptides, their production and use” (Takeda Chemical Industries, Ltd., priority 1995, dated 2004).
Where no end group is shown, it is not given here.

Assays:
[1] = glucose-induced increase in plasma insulin concentration; format: in vivo, Male Wistar rats; conditions: bolus injection in the jugular vein with glucose 86 mg/rat
Protocol: Male Wistar rats (8-10w) were anesthetized by i.p. injection of pentobarbital (65 mg/kg). Glucose alone (86 mg/rat) or glucose and 19P2-L31 (675 pmol, 2.25 nmol, 6.75 nmol and 67.5 nmol/rat) were administered by bolus injection in the jugular vein. Blood samples were withdrawn from the contralateral vein. Plasma insulin concentration was determined with a radioimnunoassay kit (Amersham).

[2] = plasma growth hormone (GH) level in freely moving rats, GHRH-induced; format: in vivo, male Wistar rats; conditions: 50 nmol into the third ventricle, 5 μg/kg GHRH 10 min later
Protocol: Mature male Wistar rats were anesthetized with pentobarbital 50 mg/kg i.p. and, as in Example 41, a stainless-steel guide cannula AG-12 (0.4 mm in. dia., 0.5 mm out. dia., EICOM) was implanted in position with its tip situated in the upper part of the third ventricle. After the operation the rats were housed in individual cages and kept for at least 3 days for recuperation and, then, a cannula (30 cm long, 0.5 mm in. dia., 0.9 mm out. dia., Natsume Seisakusho) filled with heparin (200 U/ml)-containing saline was inserted into the right atrium from the right jugular vein under pentobarbital anesthesia. The rats were maintained overnight for complete arousal from anesthesia and then transferred to transparent acrylic cages (30 cm×30 cm×35 cm). A 1 ml tuberculin syringe with a 24-G needle (both by Termo) was connected to the cannula inserted in the atrium and 300 μl of blood was drawn. To prevent clotting, the syringe was filled with 20 μl of saline containing 200 U/ml of heparin beforehand. […] The concentrations of GH in the plasma were determined by radioimmunoassay.
The results were expressed as a mean±S.E.M. To test for significant difference between the group treated with 19P2-L31 dissolved in PBS and the control group treated with PBS alone, Student's t-test was used. […]

[3] = motor activity of mouse after administration to lateral ventricle; format: in vivo, ICR male mice; conditions: for rearing behavior (increasing tendency) / spontaneous motor activity / rearing behavior: lateral ventricle, mouse
Protocol: The effects of administration of […] to mouse lateral ventricle on motor activity were studied. The mature ICR male mice (weight at operation: about 35 g) were anesthetized by intraperitoneal administration of 50 mg/kg of pentobarbital, and then fixed on a stereotaxic apparatus. The skull of a said mouse was exposed, then a hole was made by dental drill for guide-cannulization into the left lateral ventricle. The tip of a stainless-steel guide-cannula (24 G, length: 5 mm) for drug injection to lateral ventricle, was inserted to the position of AP: +0.6 mm (from bregma), L: left 1 mm and H: −1 mm (from dura matter). The guide-cannula was fixed onto the skull with adhesive. The cannula-implanted mice were housed as described above and were used for behavioral analysis at least 3 days after the operation.
Motor activity such as spontaneous motor activity and rearing was measured while each mouse was in a transparent acrylic cage (24×37×30 cm) within a soundproofed, illuminated (light up: at 6-18 o'clock) box. Tap water and laboratory chow were available ad libitum. Motor activity was measured by means of a Supermex (Muromachi Kikai). Drugs and PBS were administered at 2:30±30 p.m. At the administration, a stainless-steel micro-injection cannula (30 G, length: 6 mm) was inserted into the guide-cannula. The micro-injection cannula was connected to a microsyringe pump with Teflon tube, and injection of PBS or a peptide dissolved in PBS lasted for 2 minutes at a speed of 2 μl/min. The micro-injection cannula was withdrawn after over a period of 2 minutes from end of injection, then motor activity was meausred.
The results are expressed as a mean±S.E.M. Student's t test was used to determine the significance of differences between values from the mice treated with a peptide and the PBS-injected controls. For the purpose of this analysis, p<0.05 was assumed to be the minimal level of significance.

Q: Which results are given for “Ser-Arg-Ala-His-Gln-His-Ser-Met-Glu-Ile-Arg-Thr-Pro-Asp-Ile-Asn-Pro-Ala-Trp-Tyr-Ala-Gly-Arg-Gly-Ile-Arg-Pro-Val-Gly-Arg-Phe-NH2 (SRAHQHSMEIRTPDINPAWYAGRGIRPVGRF-NH2) [19P2-L31, synthetic ligand polypeptide]”?
A: glucose-induced increase in plasma insulin concentration (first and second phase) ([1]; 675 pmol/rat): partially inhibited; glucose-induced increase in plasma insulin concentration (first and second phase) ([1]; 2.25 nmol/rat): partially inhibited; glucose-induced increase in plasma insulin concentration (first and second phase) ([1]; 6.75 nmol/rat): partially inhibited; glucose-induced increase in plasma insulin concentration (first and second phase) ([1]; 67.5 nmol/rat): completely inhibited; GHRH-induced elevation of plasma GH [2]: significantly inhibited; rearing behavior (increasing tendency) ([3]; 0.01 nmol): not statistically significant; spontaneous motor activity ([3]; 0.01 nmol, at 20 min and 40 min after injection): significant increase; rearing behavior (increasing tendency) ([3]; 0.1 nmol): not statistically significant; spontaneous motor activity ([3]; 0.1 nmol, at 25 min, 40 min and 70 min after injection): significant increase; spontaneous motor activity ([3]; 1 nmol): did not cause statistically significant change; rearing behavior ([3]; 1 nmol, at only 105 min after injection): significant decrease; rearing behavior ([3]; 10 nmol): significant variation; spontaneous motor activity ([3]; 10 nmol): significant increase; amount of activity (motor activity) ([3]; 0.01-10 nmol, lateral ventricle of mice, summary): an increase in the amount of activity was found
